IC50, Dmax and DC50 data for 12 molecules are collected here from patent publication US12528814B2, “Bifunctional degraders of interleukin-1 receptor-associated kinases and therapeutic use thereof” (NURIX THERAPEUTICS, INC., priority 2020, dated 2026).

A word on the pIC50: it is −log10 of the IC50, conventionally taken in molar units. One may read the Dmax as the greatest extent of degradation seen. Usually DC50 stands for the concentration giving 50% degradation.

The target in test [1] is T1, IRAK4 (Homo sapiens (Human), UniProt Q9NWZ3). In words: IRAK4 Biochemical HTRF Kinase Assay. To be noted: read-out: IRAK4 HTRF biochemical: IC50. Here is the method: IRAK4 Biochemical HTRF Kinase Assay
The binding capacities of certain bifunctional compounds of Formula (I) were determined using the CisBio HTRF KinEASE STK S1 Kit (#62ST1PEB, contains 5× Kinase buffer, 1× Detection Buffer, anti-phospho-serine/threonine-cryptate, Streptavidin-XL665, and STK-S1), which measures the phosphorylation of a biotinylated peptide substrate by IRAK4, according to the manufacturer's protocol. […] 2 μl of a reaction solution containing 5 μM STK-S1, 10 mM ATP, and 10 mM MgCl2 were added to each well to a final volume of 10 μl. Assay controls include wells containing kinase with no compound (DMSO only) and wells containing no kinase and no compound (DMSO only). The reactions were allowed to proceed at ambient temperature for 90 minutes. […] The plates were incubated for 60 minutes at ambient temperature and then read on an Envision Multilabel Reader (PerkinElmer). […] For IC50 determination, the compounds were tested at sixteen concentrations in duplicate and curve-fitting was performed by non-linear regression analysis using GraphPad Priam.
For orientation: TR-FRET usually uses a lanthanide donor and a delayed reading to cut background.
Target sequence in this assay (Q9NWZ3 whole entry, species assumed): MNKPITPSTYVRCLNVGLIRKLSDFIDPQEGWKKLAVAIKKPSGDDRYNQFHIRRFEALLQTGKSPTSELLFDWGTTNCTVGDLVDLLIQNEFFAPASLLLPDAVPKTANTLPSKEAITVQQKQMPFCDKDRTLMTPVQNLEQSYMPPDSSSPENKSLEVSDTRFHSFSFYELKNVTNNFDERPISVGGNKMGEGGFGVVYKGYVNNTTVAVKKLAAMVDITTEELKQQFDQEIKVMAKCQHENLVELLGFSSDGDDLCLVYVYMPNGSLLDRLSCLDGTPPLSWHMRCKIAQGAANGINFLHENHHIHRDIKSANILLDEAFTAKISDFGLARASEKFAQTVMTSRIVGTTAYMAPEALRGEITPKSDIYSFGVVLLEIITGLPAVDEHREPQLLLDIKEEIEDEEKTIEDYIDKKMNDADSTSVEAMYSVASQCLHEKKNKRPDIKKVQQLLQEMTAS

In test [2] the target is T1, IRAK4. In words: IRAK4 Degradation HiBiT Assay. To be noted: HiBiT-tagged Jurkat cells, 4 hrs; for Dmax: Jurkat; for DC50: read-out: Cellular IRAK4 HiBiT: DC50.
Target sequence in this assay (Q9NWZ3 whole entry): as the sequence (Q9NWZ3 whole entry, species assumed) above
The mark [3] stands for this setting: read-out: Cellular IRAK4 HiBiT: Dmax, Table 4.
The mark [4] stands for this setting: read-out: Cellular IRAK4 HiBiT: Dmax, Table 5, multiple runs.

Structures are written as SMILES. pIC50: −log10 of the molar value. Read-outs that look alike come from different tables or passages of the source.

Consider `CC(C)Nc1cc(-c2ccc3cc(C#N)cnn23)ncc1-c1nnc(N2CCN(C(=O)CCOCCNc3cccc4c3C(=O)N(C3CCC(=O)NC3=O)C4=O)CC2)s1` (stereo not drawn) [Example 7, 7-(5-(5-(4-(3-(2-((2-(2,6-dioxopiperidin-3-yl)-1,3-dioxoisoindolin-4-yl)amino)ethoxy)propanoyl)piperazin-1-yl)-1,3,4-thiadiazol-2-yl)-4-(isopropylamino)pyridin-2-yl)pyrrolo[1,2-b]pyridazine-3-carbonitrile], for which the pIC50 is 8.04 in test [1] (Table 4) and 8.04 in test [1] (Table 5, multiple runs). The Dmax in test [2] (setting [3]) and in test [2] (setting [4]) was 39% each time. Further, the DC50 in test [2] (Table 4) was found to be 228 nM; in test [2] (Table 5, multiple runs), 229 nM.

As to `CC(C)Nc1cc(-c2ccc3cc(C#N)cnn23)ncc1-c1nnc(N2CCN(C(=O)CCCCCCCNc3cccc4c3C(=O)N(C3CCC(=O)NC3=O)C4=O)CC2)s1` (stereo not drawn) [Example 8, 7-(5-(5-(4-(8-((2-(2,6-dioxopiperidin-3-yl)-1,3-dioxoisoindolin-4-yl)amino)octanoyl)piperazin-1-yl)-1,3,4-thiadiazol-2-yl)-4-(isopropylamino)pyridin-2-yl)pyrrolo[1,2-b]pyridazine-3-carbonitrile], the pIC50 in test [1] (Table 4) is 9.10; in test [1] (Table 5, multiple runs), 9.10. Further, the Dmax in test [2] (setting [3]) and in test [2] (setting [4]) was 100% throughout. The DC50 in test [2] (Table 4) turned out to be 53.8 nM; in test [2] (Table 5, multiple runs), 53.8 nM.

For `CC(C)Nc1cc(-c2ccc3cc(C#N)cnn23)ncc1-c1nnc(N2CCN(C(=O)CCCCCNc3cccc4c3C(=O)N(C3CCC(=O)NC3=O)C4=O)CC2)s1` (stereo not drawn) [Example 9, 7-(5-(5-(4-(6-((2-(2,6-dioxopiperidin-3-yl)-1,3-dioxoisoindolin-4-yl)amino)hexanoyl)piperazin-1-yl)-1,3,4-thiadiazol-2-yl)-4-(isopropylamino)pyridin-2-yl)pyrrolo[1,2-b]pyridazine-3-carbonitrile], the pIC50 in test [1] (Table 4) was 8.54; in test [1] (Table 5, multiple runs), 8.54. In addition, the Dmax in test [2] (setting [3]) and in test [2] (setting [4]) was 125% each time. The DC50 in test [2] (Table 4) came to 218 nM; in test [2] (Table 5, multiple runs), 217 nM.

`CC(C)Nc1cc(-c2ccc3cc(C#N)cnn23)ncc1-c1nnc(N2CCN(C(=O)CCOCCNc3ccc4c(c3)C(=O)N(C3CCC(=O)NC3=O)C4=O)CC2)s1` (stereo not drawn) [Example 10, 7-(5-(5-(4-(3-(2-((2-(2,6-dioxopiperidin-3-yl)-1,3-dioxoisoindolin-5-yl)amino)ethoxy)propanoyl)piperazin-1-yl)-1,3,4-thiadiazol-2-yl)-4-(isopropylamino)pyridin-2-yl)pyrrolo[1,2-b]pyridazine-3-carbonitrile]: the pIC50 in test [1] (Table 4) is 9.00; in test [1] (Table 5, multiple runs), 9.00. For the same molecule, the Dmax in test [2] (setting [3]) and in test [2] (setting [4]) was 103% each time. Further, the DC50 in test [2] (Table 4) turned out to be 49.1 nM; in test [2] (Table 5, multiple runs), 49.1 nM.

In the case of `CC(C)Nc1cc(-c2ccc3cc(C#N)cnn23)ncc1-c1nnc(N2CCN(C(=O)CCOCCOCCOCCNc3cccc4c3C(=O)N(C3CCC(=O)NC3=O)C4=O)CC2)s1` (stereo not drawn) [Example 11, 7-(5-(5-(4-(3-(2-(2-(2-((2-(2,6-dioxopiperidin-3-yl)-1,3-dioxoisoindolin-4-yl)amino)ethoxy)ethoxy)ethoxy)propanoyl)piperazin-1-yl)-1,3,4-thiadiazol-2-yl)-4-(isopropylamino)pyridin-2-yl)pyrrolo[1,2-b]pyridazine-3-carbonitrile], the negative-log IC50 (pIC50) in test [1] (Table 4) was 8.89; in test [1] (Table 5, multiple runs) it was 8.89. For the same molecule, the Dmax in test [2] (setting [3]) and in test [2] (setting [4]) was 104% each time. In addition, the DC50 in test [2] (Table 4) was 128 nM; in test [2] (Table 5, multiple runs) it was 128 nM.

Turning to `CC(C)Nc1cc(-c2ccc3cc(C#N)cnn23)ncc1-c1nnc(N2CCN(C(=O)C3CCN(C[C@H]4CCN(c5ccc6c(c5)C(=O)N(C5CCC(=O)NC5=O)C6=O)C4)CC3)CC2)s1` (stereo partly drawn) [Example 12, 7-(5-(5-(4-(1-(((3R)-1-(2-(2,6-dioxopiperidin-3-yl)-1,3-dioxoisoindolin-5-yl)pyrrolidin-3-yl)methyl)piperidine-4-carbonyl)piperazin-1-yl)-1,3,4-thiadiazol-2-yl)-4-(isopropylamino)pyridin-2-yl)pyrrolo[1,2-b]pyridazine-3-carbonitrile], the pIC50 in test [1] (Table 4) is 8.92; in test [1] (Table 5, multiple runs) it was 8.92. Further, the results for the Dmax in test [2] (setting [3]) and in test [2] (setting [4]) were 92% and 91%, respectively. Moreover, the DC50 in test [2] (Table 4) came to 108 nM; in test [2] (Table 5, multiple runs) it was 98.1 nM.

Turning to `CC(C)Nc1cc(-c2ccc3cc(C#N)cnn23)ncc1-c1nnc(N2CCN(C(=O)CCN3CCN(c4ccc5c(c4)C(=O)N(C4CCC(=O)NC4=O)C5=O)CC3)CC2)s1` (stereo not drawn) [Example 14, 7-(5-(5-(4-(3-(4-(2-(2,6-dioxopiperidin-3-yl)-1,3-dioxoisoindolin-5-yl)piperazin-1-yl)propanoyl)piperazin-1-yl)-1,3,4-thiadiazol-2-yl)-4-(isopropylamino)pyridin-2-yl)pyrrolo[1,2-b]pyridazine-3-carbonitrile], the negative-log IC50 (pIC50) in test [1] (Table 4) was 9.10; in test [1] (Table 5, multiple runs), 9.10. The Dmax in test [2] (setting [3]) was 99%; in test [2] (setting [4]), 97%. Moreover, the DC50 came to 42.7 nM in test [2] (Table 4) and 37.2 nM in test [2] (Table 5, multiple runs).

In the case of `CC(C)Nc1cc(-c2ccc3cc(C#N)cnn23)ncc1-c1nnc(N2CCN(C(=O)CN3CCC4(CC3)CN(c3ccc5c(c3)C(=O)N(C3CCC(=O)NC3=O)C5=O)C4)CC2)s1` (stereo not drawn) [Example 15, 7-(5-(5-(4-(2-(2-(2-(2,6-dioxopiperidin-3-yl)-1,3-dioxoisoindolin-5-yl)-2,7-diazaspiro[3.5]nonan-7-yl)acetyl)piperazin-1-yl)-1,3,4-thiadiazol-2-yl)-4-(isopropylamino)pyridin-2-yl)pyrrolo[1,2-b]pyridazine-3-carbonitrile], the negative-log IC50 (pIC50) in test [1] (Table 4) was 9.00; in test [1] (Table 5, multiple runs), 9.00. The Dmax in test [2] (setting [3]) was found to be 81%; in test [2] (setting [4]), 85%. For the same molecule, the DC50 in test [2] (Table 4) stood at 82.7 nM; in test [2] (Table 5, multiple runs), 86.9 nM.

As for `CC(C)Nc1cc(-c2ccc3cc(C#N)cnn23)ncc1-c1nnc(N2CCN(CCC3CCN(c4ccc5c(c4)C(=O)N(C4CCC(=O)NC4=O)C5=O)CC3)CC2)s1` (stereo not drawn) [Example 16, 7-(5-(5-(4-(2-(1-(2-(2,6-dioxopiperidin-3-yl)-1,3-dioxoisoindolin-5-yl)piperidin-4-yl)ethyl)piperazin-1-yl)-1,3,4-thiadiazol-2-yl)-4-(isopropylamino)pyridin-2-yl)pyrrolo[1,2-b]pyridazine-3-carbonitrile], the negative-log IC50 (pIC50) is 8.77 in test [1] (Table 4) and 8.77 in test [1] (Table 5, multiple runs). Moreover, the Dmax stood at 62% in test [2] (setting [3]) and 53% in test [2] (setting [4]). Besides, the DC50 in test [2] (Table 4) came to 127 nM; in test [2] (Table 5, multiple runs) it was 190 nM.

With `CC(C)Nc1cc(-c2ccc3cc(C#N)cnn23)ncc1-c1nnc(N2CCN(C3CCN(C[C@H]4CCN(c5ccc6c(c5)C(=O)N(C5CCC(=O)NC5=O)C6=O)C4)CC3)CC2)s1` (stereo partly drawn) [Example 17, 7-(5-(5-(4-(1-(((3R)-1-(2-(2,6-dioxopiperidin-3-yl)-1,3-dioxoisoindolin-5-yl)pyrrolidin-3-yl)methyl)piperidin-4-yl)piperazin-1-yl)-1,3,4-thiadiazol-2-yl)-4-(isopropylamino)pyridin-2-yl)pyrrolo[1,2-b]pyridazine-3-carbonitrile], the pIC50 in test [1] (Table 4) is 8.85; in test [1] (Table 5, multiple runs) it was 8.85. Moreover, the Dmax in test [2] (setting [3]) amounted to 69%; in test [2] (setting [4]), 77%. The 50% degradation concentration (DC50) in test [2] (Table 4) came to 139 nM; in test [2] (Table 5, multiple runs), 168 nM.

For `CC(C)Nc1cc(-c2ccc3cc(C#N)cnn23)ncc1-c1nnc(N2CCN(C3CCN(Cc4ccc5c(c4)C(=O)N(C4CCC(=O)NC4=O)C5=O)CC3)CC2)s1` (stereo not drawn) [Example 18, 7-(5-(5-(4-(1-((2-(2,6-dioxopiperidin-3-yl)-1,3-dioxoisoindolin-5-yl)methyl)piperidin-4-yl)piperazin-1-yl)-1,3,4-thiadiazol-2-yl)-4-(isopropylamino)pyridin-2-yl)pyrrolo[1,2-b]pyridazine-3-carbonitrile], the pIC50 in test [1] (Table 4) was 8.72; in test [1] (Table 5, multiple runs), 8.72. For the same molecule, the values for the Dmax in test [2] (setting [3]) and in test [2] (setting [4]) were 88% and 87%, respectively. Further, the DC50 in test [2] (Table 4) stood at 123 nM; in test [2] (Table 5, multiple runs) it was 113 nM.

`CC(C)Nc1cc(-c2ccc3cc(C#N)cnn23)ncc1-c1nnc(N2CCN(C[C@H]3CCN(c4ccc5c(c4)C(=O)N(C4CCC(=O)NC4=O)C5=O)C3)CC2)s1` (stereo partly drawn) [Example 19, 77-(5-(5-(4-(((3R)-1-(2-(2,6-dioxopiperidin-3-yl)-1,3-dioxoisoindolin-5-yl)pyrrolidin-3-yl)methyl)piperazin-1-yl)-1,3,4-thiadiazol-2-yl)-4-(isopropylamino)pyridin-2-yl)pyrrolo[1,2-b]pyridazine-3-carbonitrile]: the pIC50 in test [1] (Table 4) is 8.66; in test [1] (Table 5, multiple runs), 8.66. The Dmax in test [2] (setting [3]) turned out to be 79%; in test [2] (setting [4]), 67%. Besides, the DC50 is 90.1 nM in test [2] (Table 4) and 90.6 nM in test [2] (Table 5, multiple runs).
